Test results taken from PubChem BioAssay (NCI).
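Five concentrations, 48 hours, 96-well plates. TGI is the concentration that stops growth completely.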

Test system: RPMI-8226 leukemia
Experiment: DTP human tumour cell line panel, 48 h

| Compound | TGI [µM] |
| --- | --- |
| CCN(C(=O)N[C@H](C(=O)N[C@@H](C)C(=O)OC)C(C)C)c1ccccc1 | > 100 |
| CCOC(=O)c1ccc(C(=O)/C(C(=O)OC(C)(C)C)=C2\CCCN2C)n1C | > 100 |
| O=CN(O)CC(=O)O | > 100 |
| OCC1OC(O[C@H]2CN3[C@H](O)[C@@H](O)[C@H](O)[C@H]3C2O)C(O)C(O)C1O (stereo partly specified) | > 100 |
| CC1OC(n2cc(F)c(=O)[nH]c2=O)C(O[Si](C)(C)C(C)(C)C)C1O[Si](C)(C)C(C)(C)C (stereo unspecified) | 35.4 |
| O=S1(=O)c2ccccc2NC(=S)N1c1ccccc1 | > 100 |
| COC(=O)C(CCSC)NC(=O)CSc1nnc(COc2ccc(Cl)cc2)n1-c1ccccc1 (stereo unspecified) | 34.5 |
| c1ccc(-c2ccc(N=NN3CCCC3)cc2)cc1 | > 100 |
| COn1cc(CO)c2ccccc21 | > 100 |
| COc1cc2nc(-c3c(F)cccc3F)n(Cc3c(F)cccc3F)c2cc1Cc1c(F)cccc1F | > 100 |
| O=C(/C=C1\C[C@H]2C=Nc3ccccc3C(=O)N2C1)NCCCCCNC(=O)/C=C1\C[C@H]2C=Nc3ccccc3C(=O)N2C1 | > 72.7 |
| CC[P+](C#Cc1ccccc1)(c1ccccc1)c1ccccc1 | 0.781 |
| CC(C)Cc1c(C#N)c(C#N)c(N)n1Cc1ccccc1 | > 100 |
| NS(=O)(=O)c1nnc(NSc2ccc([N+](=O)[O-])cc2)s1 | > 100 |
| CC(C)(C)c1ccc2c(c1)OCc1n[nH]c(n1)COc1cc(C(C)(C)C)ccc1OCCOCCO2 | 8.41 |
| O=C(CN=C(CN(c1ccccc1)c1ccccc1)Oc1c(Cl)cc(Cl)cc1Cl)n1cnc2ccccc21 | > 100 |
| COC(=O)c1sc2ncc3c(c2c1N)CC(C)CC3 (stereo unspecified) | > 100 |
| Cc1cccc(NC(Nc2cccc(C)c2)=C(C(Cl)=C(Cl)Cl)[N+](=O)[O-])c1 | > 100 |
| CC1=CCC[C@H]2[C@](C)(CC3=CC(=O)C4SCCSC4C3=O)[C@@H](C)CC[C@]12C (stereo partly specified) | 41.8 |
| C/C(=N\Nc1nc2ccccc2s1)c1cccnn1 | > 100 |
| COC(=O)C1=C(C(=O)OC)C2(C)CCC(=O)C1O2 (stereo unspecified) | > 10 |
| Nc1n[nH]c2ccccc12 | > 100 |
| COC(=O)[C@H]1C=C[C@H](OC2OC(COC(C)=O)C(OC(C)=O)C(OC(C)=O)C2OC(C)=O)n2c(=O)n(-c3ccccc3)c(=O)n21 (stereo partly specified) | 5.04 |
| N/C(CSCCSC/C(N)=N/O)=N\O | > 100 |

Test system: SNB-19 CNS
Experiment: DTP human tumour cell line panel, 48 h

| Compound | TGI [µM] |
| --- | --- |
| CC(O)(C(=O)N(O)c1ccc(Cl)cc1)c1ccc(Cl)cc1 (stereo unspecified) | > 100 |
| CC1(C)[C@@H]2C[C@H]1c1cnc(-c3ccccn3)cc1[C@H]2C(O)[C@@H]1c2cc(-c3ccccn3)ncc2[C@H]2C[C@@H]1C2(C)C (stereo partly specified) | 15.5 |
| CC1(C)OC(CCO)CN1C(=O)OCc1ccccc1 (stereo unspecified) | > 100 |
| COc1ccc(N2C(=O)C3c4[nH]c5ccccc5c4C4C(C)CCCC4C3C2=O)cc1 (stereo unspecified) | > 100 |
| O=c1c(Cc2ccccc2)c(-c2ccccc2)[nH]n1C1=NCCN1 | > 100 |
| CCOC(=O)Cc1nn2c(=O)cc(C)nc2s1 | > 100 |
| CCOC1NC(=O)c2ccccc21 (stereo unspecified) | > 100 |
| CCN(C(=O)N[C@H](C(=O)N[C@@H](C)C(=O)OC)C(C)C)c1ccccc1 | > 100 |
| CCOC(=O)c1ccc(C(=O)/C(C(=O)OC(C)(C)C)=C2\CCCN2C)n1C | > 100 |
| O=CN(O)CC(=O)O | > 100 |
| OCC1OC(O[C@H]2CN3[C@H](O)[C@@H](O)[C@H](O)[C@H]3C2O)C(O)C(O)C1O (stereo partly specified) | > 100 |
| CC1OC(n2cc(F)c(=O)[nH]c2=O)C(O[Si](C)(C)C(C)(C)C)C1O[Si](C)(C)C(C)(C)C (stereo unspecified) | 30.1 |
| O=S1(=O)c2ccccc2NC(=S)N1c1ccccc1 | > 100 |
| COC(=O)C(CCSC)NC(=O)CSc1nnc(COc2ccc(Cl)cc2)n1-c1ccccc1 (stereo unspecified) | 47.1 |
| c1ccc(-c2ccc(N=NN3CCCC3)cc2)cc1 | > 100 |
| COn1cc(CO)c2ccccc21 | > 100 |

| Compound | TGI [µM] |
| --- | --- |
| COc1cc2nc(-c3c(F)cccc3F)n(Cc3c(F)cccc3F)c2cc1Cc1c(F)cccc1F | > 100 |
| O=C(/C=C1\C[C@H]2C=Nc3ccccc3C(=O)N2C1)NCCCCCNC(=O)/C=C1\C[C@H]2C=Nc3ccccc3C(=O)N2C1 | 31.1 |
| CC[P+](C#Cc1ccccc1)(c1ccccc1)c1ccccc1 | 17.5 |
| CC(C)Cc1c(C#N)c(C#N)c(N)n1Cc1ccccc1 | > 100 |
| NS(=O)(=O)c1nnc(NSc2ccc([N+](=O)[O-])cc2)s1 | > 100 |
| CC(C)(C)c1ccc2c(c1)OCc1n[nH]c(n1)COc1cc(C(C)(C)C)ccc1OCCOCCO2 | 13.4 |
| O=C(CN=C(CN(c1ccccc1)c1ccccc1)Oc1c(Cl)cc(Cl)cc1Cl)n1cnc2ccccc21 | > 100 |
| COC(=O)c1sc2ncc3c(c2c1N)CC(C)CC3 (stereo unspecified) | > 100 |
| Cc1cccc(NC(Nc2cccc(C)c2)=C(C(Cl)=C(Cl)Cl)[N+](=O)[O-])c1 | > 63 |
| CC1=CCC[C@H]2[C@](C)(CC3=CC(=O)C4SCCSC4C3=O)[C@@H](C)CC[C@]12C (stereo partly specified) | 37.1 |
| C/C(=N\Nc1nc2ccccc2s1)c1cccnn1 | > 100 |
| COC(=O)C1=C(C(=O)OC)C2(C)CCC(=O)C1O2 (stereo unspecified) | > 10 |
| Nc1n[nH]c2ccccc12 | > 100 |
| COC(=O)[C@H]1C=C[C@H](OC2OC(COC(C)=O)C(OC(C)=O)C(OC(C)=O)C2OC(C)=O)n2c(=O)n(-c3ccccc3)c(=O)n21 (stereo partly specified) | 31.3 |
| N/C(CSCCSC/C(N)=N/O)=N\O | > 100 |

Test system: SR leukemia
Experiment: DTP human tumour cell line panel, 48 h

| Compound | TGI [µM] |
| --- | --- |
| CC(O)(C(=O)N(O)c1ccc(Cl)cc1)c1ccc(Cl)cc1 (stereo unspecified) | 36.1 |
| CC1(C)[C@@H]2C[C@H]1c1cnc(-c3ccccn3)cc1[C@H]2C(O)[C@@H]1c2cc(-c3ccccn3)ncc2[C@H]2C[C@@H]1C2(C)C (stereo partly specified) | 0.354 |
| CC1(C)OC(CCO)CN1C(=O)OCc1ccccc1 (stereo unspecified) | > 100 |
| COc1ccc(N2C(=O)C3c4[nH]c5ccccc5c4C4C(C)CCCC4C3C2=O)cc1 (stereo unspecified) | > 46.8 |
| O=c1c(Cc2ccccc2)c(-c2ccccc2)[nH]n1C1=NCCN1 | > 100 |
| CCOC(=O)Cc1nn2c(=O)cc(C)nc2s1 | > 100 |
| CCOC1NC(=O)c2ccccc21 (stereo unspecified) | > 100 |
| CCN(C(=O)N[C@H](C(=O)N[C@@H](C)C(=O)OC)C(C)C)c1ccccc1 | > 100 |
| CCOC(=O)c1ccc(C(=O)/C(C(=O)OC(C)(C)C)=C2\CCCN2C)n1C | > 100 |
| O=CN(O)CC(=O)O | > 100 |
| OCC1OC(O[C@H]2CN3[C@H](O)[C@@H](O)[C@H](O)[C@H]3C2O)C(O)C(O)C1O (stereo partly specified) | > 100 |
| CC1OC(n2cc(F)c(=O)[nH]c2=O)C(O[Si](C)(C)C(C)(C)C)C1O[Si](C)(C)C(C)(C)C (stereo unspecified) | > 100 |
| O=S1(=O)c2ccccc2NC(=S)N1c1ccccc1 | > 100 |
| COC(=O)C(CCSC)NC(=O)CSc1nnc(COc2ccc(Cl)cc2)n1-c1ccccc1 (stereo unspecified) | 42.4 |
| c1ccc(-c2ccc(N=NN3CCCC3)cc2)cc1 | > 100 |
| COn1cc(CO)c2ccccc21 | > 100 |

| Compound | TGI [µM] |
| --- | --- |
| COc1cc2nc(-c3c(F)cccc3F)n(Cc3c(F)cccc3F)c2cc1Cc1c(F)cccc1F | > 100 |
| O=C(/C=C1\C[C@H]2C=Nc3ccccc3C(=O)N2C1)NCCCCCNC(=O)/C=C1\C[C@H]2C=Nc3ccccc3C(=O)N2C1 | 12.4 |
| CC[P+](C#Cc1ccccc1)(c1ccccc1)c1ccccc1 | 5.73 |
| CC(C)Cc1c(C#N)c(C#N)c(N)n1Cc1ccccc1 | > 100 |
| NS(=O)(=O)c1nnc(NSc2ccc([N+](=O)[O-])cc2)s1 | > 100 |
| CC(C)(C)c1ccc2c(c1)OCc1n[nH]c(n1)COc1cc(C(C)(C)C)ccc1OCCOCCO2 | 13 |
| O=C(CN=C(CN(c1ccccc1)c1ccccc1)Oc1c(Cl)cc(Cl)cc1Cl)n1cnc2ccccc21 | > 100 |
| COC(=O)c1sc2ncc3c(c2c1N)CC(C)CC3 (stereo unspecified) | > 100 |
| Cc1cccc(NC(Nc2cccc(C)c2)=C(C(Cl)=C(Cl)Cl)[N+](=O)[O-])c1 | 42.8 |
| CC1=CCC[C@H]2[C@](C)(CC3=CC(=O)C4SCCSC4C3=O)[C@@H](C)CC[C@]12C (stereo partly specified) | 53.6 |
| C/C(=N\Nc1nc2ccccc2s1)c1cccnn1 | 52.5 |
| COC(=O)C1=C(C(=O)OC)C2(C)CCC(=O)C1O2 (stereo unspecified) | > 10 |
| Nc1n[nH]c2ccccc12 | > 100 |
| COC(=O)[C@H]1C=C[C@H](OC2OC(COC(C)=O)C(OC(C)=O)C(OC(C)=O)C2OC(C)=O)n2c(=O)n(-c3ccccc3)c(=O)n21 (stereo partly specified) | 8.33 |
| N/C(CSCCSC/C(N)=N/O)=N\O | > 100 |
